Where “and” joins values, the source holds several entries; their conditions need not be identical. Equal entries are not always repeated. Where two headings read alike, the source gives them in different places.
Key:
E. Faecium NCTC 12204 = assay: MIC assay; format: cell-based; conditions: Enterococcus faecium, NCTC12204; lowest concentration with no visible growth
Protocol: Section S3: Biological methods […]
Preparation of bacterial plates : Sterile TSB agar plates were streaked using the desired bacteria [Staphylococcus aureus (9144, 13616, USA 300 and 1199B ), Enterococcus faecalis (NCTC 775 and 12201 ) and Enterococcus faecium (NCTC 12204)] and incubated at 37 °C […]
Preparation of inoculum: An initial culture was made up by inoculating TSB (5 mL) with 3 single colonies of the desired bacteria under sterile conditions and incubated at 37 °C overnight. The optical density at 600 nm (OD 600) was adjusted using sterile distilled H 2O (dH2O) to equal ~1 x 10^6 bacteria/mL.
Preparation of 96 -well microplate : A solution of each compound in H2O/5 % EtOH was made […]
. The compound solution (200
[…]. The bacterial suspension (100 µL) was dispensed into each well under sterile conditions. The plates were sealed using parafilm and incubated at 37 °C for 20 hours, after which the OD 600 was measured.

Haemolysis assay = format: cell-based; conditions: human, human red blood cells (erythrocytes), pH 7.4, 1.39 mM total molecular concentration, 37 °C
[1] = set-up: method as in PMID 29633393; conditions: equal K/dimerization model, DMSO-d6 0.5% H2O; cited from earlier work
[2] = Surface tension (pendant drop) / CAC determination, H2O 5% EtOH; format: physicochemical; conditions: for Surface tension (mN m^-1): H2O 5% EtOH, at limit of SSA solubility = 5.56 mM; for CAC: H2O/5 % EtOH, above the limit of solubility
Description: Here, the CAC is defined as the concentration at which any additional SSA added to a solution will result in the production of high-order self-associated species. […] To determine CAC, we used the pendant drop method to elucidate the surface tension of H2O 5% EtOH solutions of 1, 3, 5, 7, 9, and 1 : 1 SSA enantiomeric mixtures at 291 K (Table 2).

[3] = 1H NMR DOSY, DMSO-d6 0.5% H2O; format: physicochemical; conditions: 298 K; for dH (nm), hydrodynamic diameter, anionic component: 1H NMR DOSY, DMSO-d6 0.5% H2O, 112 mM; for Hydrodynamic diameter (nm) Cationic component: DMSO-d6/0.5 % H2O
[4] = Bi-directional permeability in Caco-2 cell line; format: in vitro ADME; conditions: human; for recovery at 2 h, 5 µM: Caco-2, pH 7.4, after 2 hours
Description: (§1) Next, to gauge the suitability of SSAs for oral dosing, 9 was subjected to a Caco-2 permeability assay which is used to both predict human intestinal permeability and investigate drug efflux, predicting in vivo compound absorption. This assay allows assessment of a compound's ability to undergo transport from the apical to the basolateral (A–B) compartments of the cell monolayer and vice versa (B–A). […] This is likely to result in poor absorption when dosed orally and therefore further development would be necessary for these agents to become suitable for oral administration. […]
(§2) The ionspray voltage was 5500V.
(§3) Bi-directional Permeability in Caco-2 Cell Line:
(§4) The bi-directional permeability in Caco-2 cell lines was determined by seeding cells onto an HTS Transwell plate. Cells were cultivated for 14-18 days in a cell culture incubator at 37°C, 5% CO2, 95% relative humidity. Cell culture medium was replaced every other day. To assess monolayer integrity the transepithelial electrical resistance (TEER) across the monolayer was measured using Millicell Epithelial volt-ohm meter prior to assay and Lucifer yellow (LY) fluorescence measurement post-assay.
(§5) Test compound was prepared in DMSO and diluted in Hank’s Balanced Saline Solution (HBSS, pH 7.4) to a final concentration of 5 µM. Compound was added to the donor compartment of the transwell plate for both apical to basolateral (A>B) and basolateral to apical (B>A) measurements, with blank HBSS being added to the receiver compartment. The transwell plate was then incubated at 37°C, 5% CO2 for 2 hours.
(§6) Samples were taken at T=0 and T=2 hours determine the concentration of initial donor sample, and the concentration of receiver and donor wells post-incubation, respectively.
(§7) The samples were quenched with solvent containing internal standard (IS). The supernatant was mixed with an appropriate volume of ultra-pure water before LC-MS/MS analysis.
(§8) Samples were analysed using a Shimadzu Nexera LC Binary Gradient LC-30AD (Shimadzu Inc, Kyoto), coupled to a Sciex 6500+ (AB Inc., Illinois). Separation of compounds was achieved using a HALO 90Å biphenyl (2.7µm,2.1x50mm) (Advanced Materials Technology, Wilmington) column at a temperature of 40°C. A binary mobile phase gradient at a flow rate of 0.7 mL/min was used. Initial LC conditions comprised of 95% solvent A (0.1% formic acid in water) and 5% solvent B (0.1% formic acid in acetonitrile). This was ramped to 95% solvent B at 0.7 minutes, held for 0.5 minutes and then immediately returned to initial conditions. Sample analysis was by electrospray ionisation combined with multiple reaction monitoring in positive ion mode. The ion spray voltage was 5500V.
(§9) In vitro Absorption, Distribution and Metabolism results
(§10) Table S1 – Result from solubility assays performed in PBS pH 7.4 for SSA 9.
(§11) Table S2 – Summary of results from Caco-2 permeability assays for SSA 9. Papp is given as […]
(§12) cm/s. A = apical; B = basolateral. Recovery = % SSA recovered from the assay after 2 hours.
(§13) ID Papp (A-B) % Recovery Papp (B-A) % Recovery Efflux Ratio
(§14) Table S3 – Summary of results from human plasma protein binding assays for SSA 9. % Bound = % of SSA bound to the plasma proteins after 6 hours incubation at 37 °C. Low % […]
(§15) = > 99 %. % Recovery = % SSA recovered from the assay after 6 hours.
(§16) ID % Bound % Recovery % Stability
(§17) Table S4 – Summary of results from mouse, rat and human microsomal stability assays for SSA 9. The in vitro half-life (t1/2) and microsomal intrinsic clearance (CLint) were calculated from the elimination rate (k, the slope of the natural log of concentration verses time curve), assuming first order kinetics, using the formulae t1/2 = 0.693/-k and CLint = 0.693/t1/2 […]. This compound would be classed as a low clearance compound in all three species. […]

Caco-2 cell monolayer = assay: Bi-directional permeability in Caco-2 cell line; format: in vitro ADME
Description: as §1, §2, §3, §4, §5, §6, §7, §8, §9, §10, §11, §12, §13, §14, §15, §16, §17

Structure (SMILES): O=C(O)CNC(=O)Nc1ccc(C(F)(F)F)cc1 [SSA 1]
- MIC (E. Faecium NCTC 12204): > 2.78 mM
- hemolysis at 60 min, 1.39 mM (Haemolysis assay): 0.29%
- Kdim (M^-1) [1]: 41 (±1.3%)[30] M^−1

Structure (SMILES): CC(C)CC(NC(=O)Nc1ccc(C(F)(F)F)cc1)C(=O)O (stereo not shown) [SSA 3]
- Surface tension (mN m^-1) ([2]; listed as 3): 40.92 mN m^−1 and 40.92 ^c mN m^−1
- CAC [2]: > 5.56 mM
- MIC (E. Faecium NCTC 12204): > 2.78 mM
- dH (nm), hydrodynamic diameter, anionic component ([3]; listed as 3): 1.66 nm and 1.7 nm
- Hydrodynamic diameter (nm) Cationic component ([3]; listed as 3): 1.26 nm

Structure (SMILES): CC(C)CC(NC(=O)Nc1ccc(C(F)(F)F)cc1)C(=O)O (stereo not shown) [SSA 5]
- Surface tension (mN m^-1) ([2]; listed as 5): 40.92 mN m^−1 and 40.92 ^c mN m^−1
- dH (nm), hydrodynamic diameter, anionic component ([3]; listed as 5): 1.70 nm and 1.7 nm
- Hydrodynamic diameter (nm) Cationic component ([3]; listed as 5): 1.28 nm

Structure (SMILES): O=C(Nc1ccc(C(F)(F)F)cc1)N[C@@H](Cc1ccccc1)C(=O)O [SSA 7]
- Surface tension (mN m^-1) [2]: 39.83 mN m^−1 and 39.83 ^c mN m^−1
- CAC [2]: > 5.56 mM
- MIC (E. Faecium NCTC 12204): > 2.78 mM
- dH (nm), hydrodynamic diameter, anionic component [3]: 1.70 nm and 1.7 nm
- Hydrodynamic diameter (nm) Cationic component [3]: 1.27 nm
- hemolysis at 60 min, 1.39 mM (Haemolysis assay): 0.47%

Structure (SMILES): O=C(Nc1ccc(C(F)(F)F)cc1)N[C@H](Cc1ccccc1)C(=O)O [SSA 9]
- Surface tension (mN m^-1) [2]: 39.64 mN m^−1 and 39.64 ^c mN m^−1
- CAC [2]: > 5.56 mM
- Papp B→A at 2 h, 5 µM ([4]; Caco-2, pH 7.4, 5 µM, 2 hours, basolateral to apical): 16.8 ×10⁻⁶ cm/s
- efflux ratio at 2 h, 5 µM ([4]; Caco-2, pH 7.4, Caco-2): 96.9
- recovery at 2 h, 5 µM ([4]; read-out: Recovery (%) AP-BL): 111%
- recovery at 2 h, 5 µM ([4]; read-out: Recovery (%) BL-AP): 97.7%
- Papp A→B at 2 h, 5 µM ([4]; Caco-2, pH 7.4, 5 µM, 2 hours, apical to basolateral): 0.17 ×10⁻⁶ cm/s
- Papp (B-A) (Caco-2 cell monolayer; 5 µM, 2 hours, basolateral to apical): 16.76 10-6 cm/s
- Efflux Ratio (Caco-2 cell monolayer; Caco-2): 96.91
- Recovery (%) AP-BL (Caco-2 cell monolayer; after 2 hours): 110.78%
- Recovery (%) BL-AP (Caco-2 cell monolayer; after 2 hours): 97.74%
- MIC (E. Faecium NCTC 12204): > 2.78 mM
- dH (nm), hydrodynamic diameter, anionic component [3]: 1.67 nm and 1.7 nm
- Hydrodynamic diameter (nm) Cationic component [3]: 1.24 nm

Source: article PMC12973313 (Chemical Science, 2026)
